Data published in patent US20190160037A1, “METHOD OF TREATING, REDUCING, PREVENTING DETERIORATION OR IMPROVING VISUAL FUNCTION AFTER OPTIC NEUROPATHY” (TZU CHI UNIVERSITY, priority 2017, published 2019).

Key:
RGCs = test: Retrograde Fluorogold labeling of RGCs, RGC density after ON crush; type: in vivo, Wistar rats
From the text: (§1) An ON crush injury was induced as described in the previous report. (Chien J Y, Sheu J H, Wen Z H, Tsai R K, Huang S P. Neuroprotective effect of 4-(Phenylsulfanyl)butan-2-one on optic nerve crush model in rats. Experimental eye research. 2016; 143:148-57. Epub 2015/10/17). Briefly, rats were general anesthetized and eye were further anesthetized with topical 0.5% Alcaine eye drops. The conjunctiva was cut with Vannas scissors to expose the optic nerve. Care was taken to avoid damaging the small vessels around the ON. Injury was introduced by crushing the ON 2 mm posterior to the globe with a vascular clip (60 g micro-vascular clip, World Precision Instruments, FL, USA) for 30 seconds. After the surgery, Tobradex eye ointment (Alcon, Puurs, Belgium) was administered. The rats were kept under supervision and on electric heating pads at 37° C. for recovery. A sham operation was performed by exposing the ON in the same way but not crushed. Oroxyiln A (15 mg/Kg in 0.2 ml phosphate-buffered saline) or phosphate-buffered saline (PBS control) was immediately administered after ON crush once by subcutaneous injection.
Retrograde labeling of RGCs with Fluorogold (FG) and densities of RGCs. The detailed procedures have been described in the previous reports. (Chien J Y, Sheu J H, Wen Z H, Tsai R K, Huang S P. Neuroprotective effect of 4-(Phenylsulfanyl)butan-2-one on optic nerve crush model in rats. Experimental eye research. 2016; 143:148-57. Epub 2015/10/17; Tsai R K, Chang C H, Wang H Z. Neuroprotective effects of recombinant human granulocyte colony-stimulating factor (G-CSF) in neurodegeneration after optic nerve crush in rats. Experimental eye research. 2008; 87(3):242-50. Epub 2008/07/08). Briefly, retrograde labeling of RGCs with FG was performed one week before sacrificing to avoid overcounting RGCs by mixing labeled RGCs with dye-engulfed macrophages and microglia. (Huang T L, Huang S P, Chang C H, Lin K H, Sheu M M, Tsai R K. Factors influencing the retrograde labeling of retinal ganglion cells with fluorogold in an animal optic nerve crush model. Ophthalmic research. 2014; 51(4):173-8. Epub 2014/03/26). The rats were anesthetized using a ketamine (100 mg/kg) and xylazine (10 mg/kg) mixture, and then placed in a stereotactic apparatus (Stoelting, Wood Dale, Ill., USA). […] One week after labeling, the eyeballs were harvested after euthanasia of the animals. The eyeballs were placed in 10% formalin and the whole retina was then carefully dissected, flattened. The retina was examined with a 400 epi-fluorescence microscope (Axioskop; Carl Zeiss Meditec. Inc., Jena, Germany) equipped with a filter set (excitation filter: 350-400 nm; barrier filter: 515 nm), as well as a digital camera (Axiocam MRm) and software (Axiovision 4.0). The retinas were examined for RGCs at a distance of 1 or 3 mm ([…] from the center to provide the central and mid-peripheral RGC densities respectively. Eight randomly chosen areas (38250 μm2; […]) in the central (about 40% of the central area) and mid-peripheral (about 30% of the mid-periphery) regions of each retina (n=6 per group) were counted. The averages of these areas were taken as the mean density of RGCs per retina. RGC survival percentage was defined as the number of RGCs in each treatment group divided by the number of RGCs in the sham-operated retina, multiplied by 100.

Brn-3a+ cells (RGCs) = test: Brn3a-labeled flat-mounted retinas after ON crush; type: in vivo, Wistar rats; conditions: for densities of Brn-3a+ cells in mid-peripheral retina / densities of Brn-3a+ cells in the central retina: after ON crush, 15 mg/Kg once by subcutaneous injection, 15 mg/kg
From the text: as §1
Animals were euthanized and eyes were enucleated and fixed in 10% formalin for 1 hour. Retina flat mounts were subjected to immunofluorescent staining for Brn-3a as previously described. (Tual-Chalot S, Allinson K R, Fruttiger M, Arthur H M. Whole Mount Immunofluorescent Staining of the Neonatal Mouse Retina to Investigate Angiogenesis In vivo. 2013; (77):e50546). In brief, flat mounts were washed with PBS and blocked with blocking buffer (PBS with 0.3% Triton-X and 5% Fetal Bovine Serum) for 1 hour. Flat mounts were then incubated with primary monoclonal antibody Brn-3a (1:200; Santa Cruz, Calif., USA) for 24 hours, washed with PBS and treated with secondary antibody Alexa flour 488 (1:400; Life Technologies, OR, USA) and incubated overnight. 8 to 10 microphotographs were captured for every retina flat mount covering central and mid peripheral region.

[1] = test system: rat model subject to ON crush; test: Flash visual-evoked potentials (FVEPs) after ON crush; type: in vivo, Wistar rats; conditions: 2 weeks after ON crush; 15 mg/Kg once by subcutaneous injection; n=6
From the text: as §1
For the functional evaluation of the ON, FVEPs were recorded 2 weeks after ON crush in 18 experimental rats. The groups in assessing FVEP were masked. […]

[2] = test system: apoptotic cells in the RGC layer; test: TUNEL assay in the RGC layer of the retina after ON crush; type: in vivo, Wistar rats; conditions: 15 mg/Kg once by subcutaneous injection, n=6
From the text: as §1, with “Oroxyiln A (15 mg/Kg in 0.2 ml phosphate-buffered saline) or phosphate-buffered saline (PBS control) was immediately administered after ON crush once by subcutaneous injection.” left out
To ensure the use of equivalent fields for comparison, all retinal frozen sections were prepared with retinas at 1-2 mm distance from the ONH. […] The TUNEL positive cells in the RGC layer of each sample were counted in ten high powered fields (HPF, ×400 magnification), and three sections per eye were averaged. […]

[3] = test system: ED1 (CD68, a marker of macrophage/microglia); test: IHC of ED1 in the ONs after ON crush; type: in vivo, Wistar rats; conditions: 2 weeks after ON crush; 15 mg/Kg once by subcutaneous injection; n=6
From the text: as §1, with “Oroxyiln A (15 mg/Kg in 0.2 ml phosphate-buffered saline) or phosphate-buffered saline (PBS control) was immediately administered after ON crush once by subcutaneous injection.” left out
(§2) IHC of ED1 (CD68, a marker of macrophage/microglia) in the ONs and IHC of GFAP in the retina using monoclonal antibody (ED1, 1:50; AbD Serotec, Oxford, UK) or polyclonal antibody (GFAP, 1:200; Cambridge, Mass., USA) was performed. […] For comparison, ED1 positive cells were counted in six HPF at the lesion site of ON (n=6 in each group).

GFAP = GFAP IHC and immunoblot in the retina after ON crush; type: in vivo, Wistar rats; conditions: 2 weeks after ON crush, vs ON-crushed, PBS-treated group, p<0.05
From the text: An ON crush injury was induced as described in the previous report. (Chien J Y, Sheu J H, Wen Z H, Tsai R K, Huang S P. Neuroprotective effect of 4-(Phenylsulfanyl)butan-2-one on optic nerve crush model in rats. Experimental eye research. 2016; 143:148-57. Epub 2015/10/17). Briefly, rats were general anesthetized and eye were further anesthetized with topical 0.5% Alcaine eye drops. The conjunctiva was cut with Vannas scissors to expose the optic nerve. Care was taken to avoid damaging the small vessels around the ON. Injury was introduced by crushing the ON 2 mm posterior to the globe with a vascular clip (60 g micro-vascular clip, World Precision Instruments, FL, USA) for 30 seconds. […]
as §2
(§3) Total retinal protein extracts from rat retina were prepared using modified radioimmunoprecipitation (RIPA) buffer. The protein concentrations were determined using the BCA (bicinchoninic acid) protein assay kit (Pierce). […] The proteins on the membranes were detected using an enhanced chemiluminescence (ECL) system (Amersham Biosciences). […]

iNOS = iNOS immunoblot in the retina after ON crush; type: in vivo, Wistar rats; conditions: two weeks after ON crush, ratio to GAPDH, vs PBS-treated
From the text: as §1, with “Oroxyiln A (15 mg/Kg in 0.2 ml phosphate-buffered saline) or phosphate-buffered saline (PBS control) was immediately administered after ON crush once by subcutaneous injection.” left out
as §3

COX-2 = COX-2 immunoblot in the retina after ON crush; type: in vivo, Wistar rats; conditions: two weeks after ON crush, ratio to GAPDH, vs PBS-treated
From the text: as §1, with “Oroxyiln A (15 mg/Kg in 0.2 ml phosphate-buffered saline) or phosphate-buffered saline (PBS control) was immediately administered after ON crush once by subcutaneous injection.” left out
as §3

RAW264.7 macrophages = conditions: through inhibiting the activation of NFκB-p65; cited from earlier work
microglia = conditions: cited from earlier work
[4] = test system: hippocampal dentate gyrus region; conditions: in vivo studies; cited from earlier work
[5] = compared to the PBS-treated group
[6] = relative to sham-operated retina, two weeks after ON crush
[7] = two weeks after ON crush, 15 mg/Kg once by subcutaneous injection, n=6

SMILES: COc1c(O)cc2oc(-c3ccccc3)cc(=O)c2c1O [oroxylin A, 5,7-dihydroxy-6-methoxyflavone]
- RGC survival rate increase vs PBS-treated group, central retina (FG labeling) (RGCs; [5]): approximately 32.7%
- RGC survival rate increase vs PBS-treated group, mid-peripheral retina (FG labeling) (RGCs; [5]): ~33.6%
- RGC survival, central retina (FG labeling) (RGCs; [6]): 52.5 % survival
- RGC survival, mid-peripheral retina (FG labeling) (RGCs; [6]): 61.9 % survival
- densities of RGCs in mid-peripheral retina (FG labeling) (RGCs; [7]): 960±465 /mm^2
- densities of RGCs in the central retina (FG labeling) (RGCs; [7]): 1352±476 /mm^2
- densities of Brn-3a+ cells in mid-peripheral retina (Brn-3a+ cells (RGCs)): 801±199 /mm^2
- densities of Brn-3a+ cells in the central retina (Brn-3a+ cells (RGCs)): 847±367 /mm^2
- densities of Brn-3a+ cells in mid-peripheral retina (Brn-3a+ cells (RGCs); listed as oroxylin-A): 800±199 /mm^2
- densities of Brn-3a+ cells in the central retina (Brn-3a+ cells (RGCs); listed as oroxylin-A): 894±367 /mm^2
- RGC survival rate increase vs PBS-treated group, central retina (Brn-3a) (Brn-3a+ cells (RGCs); [5]): approximately 30.4%
- RGC survival rate increase vs PBS-treated group, mid-peripheral retina (Brn-3a) (Brn-3a+ cells (RGCs); [5]): ~29.7%
- RGC survival, central retina (Brn-3a) (Brn-3a+ cells (RGCs); relative to sham-operated eyes): 64.9 % survival
- RGC survival, mid-peripheral retina (Brn-3a) (Brn-3a+ cells (RGCs); relative to sham-operated eyes): 73 % survival
- latency of the P1 wave in FVEP [1]: 100 ± 12 ms
- TUNEL positive cells in the RGC layer [2]: 4.0±2.4 positive cells/HPG
- ED1 positive cells at the ON lesion site [3]: 33.5±16.3 cells/HPF
- GFAP level in the retina (retinal gliosis) (GFAP): significantly reduced
- GFAP level in the retina (retinal gliosis) (GFAP; listed as Oroxylin A): attenuated retinal gliosis
- expression level of iNOS in the retina (iNOS): reducing the expression level
- expression level of iNOS in the retina (iNOS; listed as Oroxylin A): suppressed the increase
- expression level of COX-2 in the retina (COX-2): reducing the expression level
- expression level of COX-2 in the retina (COX-2; listed as Oroxylin A): suppressed the increase
- LPS-induced iNOS and cyclooxygenase-2 expression (RAW264.7 macrophages): suppresses
- LPS-induced NO production (microglia): strong inhibitory activities
- adult neurogenesis in the hippocampal dentate gyrus region [4]: stimulated
- amyloid (Aβ)-induced memory impairment [4]: ameliorated
- cerebral hypoperfusion-induced neuronal damage [4]: prevented
